Measurements from patent publication US20050025758A1, “Method and compositions for treatment of insulin-dependant diabetes mellitus” (priority 1996, published 2005).
Marks after values point to notes of the source that are not given here.

Legend:
female NOD mice [1] = assay: Aerosol treatment and diabetes assessment (blood glucose >11 mM); format: in vivo, mouse; details: for Diabetes frequency: 32 mice/group, aerosol 10 consecutive days then weekly from 28 days of age, at 105 days of age; for diabetes incidence at 156 days of age (median) / diabetes incidence at 240 days of age (median): aerosol for 3 or 10 consecutive days and then weekly from 28 days of age, five separate experiments; for diabetes incidence at 240 days of age (median): p=0.005; for incidence of diabetes by 240 days of age: single aerosol treatment at 28 days of age, female NOD mice
Experimental: Semi-sealed boxes of eight female NOD mice were each aerosolized by connection to a standard, patient electric pump ([…] Aerosol MKV, Anaesthetic Supplies, Sydney, Australia) and Aeroflo nebulizer (Waite & Co., Sydney). Recombinant human insulin (Humulin R, Eli Lilly) or control ovalbumin protein, at 4 mg/ml, was delivered over 10 min. at an air flow rate of 6 litres/min. in a rated droplet size of <5.8 μm, to groups of 24-32 mice. All treatments were given between 0900 and 1100 hours. Protocols and mouse care were approved and supervised by the institutional Animal Ethic Committee. Retro-orbital venous blood was sampled at least every 28 days from 100 days of age and mice considered to be diabetic if their blood glucose, confirmed by a repeat test, was >11 mM. Glucose was measured with BM-Test Glycemic® strips and a Reflolux® II meter (Boehringer-Mannheim), on a drop of blood aspirated via a glass capillary tube from the retro-orbital venous plexus of unanesthetised mice. Aerosol human insulin or ovalbumin were administered in different schedules to female NOD mice from 28 days of age, the earliest time at which insulitis is detectable in the colony of mice, and their incidence of diabetes and severity of insulitis subsequently measured.

female NOD mice [2] = assay: Histology: insulitis score and salivary gland infiltration; format: in vivo, mouse; details: for Insulitis score: mean ± SD, scale 0-4, aerosol 10 consecutive days then weekly from 28 days of age, five non-diabetic mice per group at 105 days of age
Experimental: Mice were killed by CO2 inhalation and the pancreas and salivary glands immediately removed into Bouin's fixative and embedded in paraffin. The insulitis score, a measure of the severity of islet infiltration was determined blindly by two independent investigators by grading and then averaging a minimum of 15 separate islets in serial 6 μm pancreas sections stained with haematoxylin and eosin. The grading scale was: 0, no filtration, islet intact; 1, <10 peri-islet lymphoid cells, islet intact; 2, 10-20 peri-and intra-islet lymphoid cells, islet intact; 3, >20 peri- and intra-islet lymphoid cells, <50% of islet replaced or destroyed; 4, massive lymphoid infiltrate with >50% of islet replaced or destroyed. Infiltration of the salivary glands was graded by the number of lymphoid cells in clusters: 0, no cells; 1, <10 cells; 2, 10-50 cells; 3, >50 cells.
Mice (32/group) were given either aerosol insulin or ovalbumin for 10 consecutive days and then weekly from 28 days of age. At 105 days of age, five non-diabetic mice from each group were killed for pancreas histology. The insulitis score is expressed as mean ±SD. • 1.

[3] = test system: splenocytes from aerosol-treated mice; assay: Proliferative responses of splenocytes from aerosol-treated mice ([3H]-thymidine uptake); format: cell-based, mouse
Experimental: (§1) Spleen cells from individual normoglycemic mice were treated with a red cell lysis buffer, resuspended and incubated in quadruplicate at 2×10^5/200 μl of serum-free HL-1 medium (Hycor, Irvine, Calif.) containing […] 2-mercaptoethanol, in round-bottom wells with the indicated concentrations of antigen. After 3 days at 37° C. in 5% v/v CO2/air, 100 μl aliquots from each replicate supernatant were collected and stored at −70° C. for cytokine assays; the cells were then pulsed with 3H-thymidine, harvested 16 hours later and counted on a Topcount™ micro-scintillation counter (Packard, Meriden, Conn.). Insulin was recombinant human (Humulin R, Eli Lilly), is used for aerosol treatments. Insulin B-chain peptide corresponding to amino acids 9-23 of mouse insulin II (Peptide Express, Fort Collins, Colo.) was more than 90% pure by HPLC analysis. GAD65 was the recombinant human form expressed with a C-terminal hexahistidine in a baculovirus system and purified by Ni^2+ chelation) affinity chromatography. It was resolved as a single band in SDS-PAGE and was endotoxin-free by the quantitative Limulus lysate assay (BioWhittaker, Walkersville, Md.).
Splenocytes from three mice per group were assayed in quadruplicate in HL-1 serum-free medium. Statistical comparisons (Mann-Whitney U tests) were between the twelve results for each group.

[4] = test system: splenocytes from aerosol-treated mice; assay: Cytokine secretion by splenocytes from aerosol-treated mice (ELISA); format: cell-based; details: splenocytes with 40 μg/ml mouse insulin II B chain peptide (a 9-23), three days incubation; for IL-4 secretion / IL-10 secretion: lower limit of detection 16 pg/ml
Experimental: as §1
IL-2, -4, -10 and IFN-γ were measured by ELISAs with monoclonal antibody pairs (Pharmingen); the lower limits of detection were 62, 16, 16 and 55 pg/ml, respectively. TGF-β1 was measured with an ELISA kit (Promega) with a lower limit of detection of 16 pg/ml.
Supernatants from replicate culture wells (Table 2) were sampled alter three days incubation and assayed for cytokines.

insulin antibodies = assay: Insulin antibodies in serum, 125I-insulin immunoprecipitation assay; format: in vivo, mouse; details: sera n=12/group, aerosol-treated mice aged 70-105 days
Experimental: To detect insulin antibodies, ^125lablelled human insulin (approx. 100,000 cpm: specific activity 120 μCi/μg) was incubated with or without excess unlabelled insulin (10 μg/ml) in phosphate-buffered saline containing a mixture of protease inhibitors and serial log dilutions of mouse serum, for 5 days at 4° C. Complexes were then precipitated with rabbit anti-mouse globulin anti-serum, washed and counted in a gamma counter. Positive control sera (guinea pig anti-porcine insulin serum, human IDDM sera) maximally precipitated 37-54% of the total radioactivity. Non-specific binding, in the presence of excess unlabelled insulin, was ≦3.3%.
Insulin antibodies were measured by a standard immunoprecipitation assay with sera (n=12/group) from insulin- and ovalbumin-treated mice aged 70-105 days. […] Defective suppressor T-cell function has been postulated to shift the balance towards Th1 in IDDM (11). It seems unlikely that the reduced T-cell proliferative response to GAD could reflect ‘bystander’ suppression due to the secretion of the Th2 cytokines IL4 and IL-10 (8) by insulin aerosol-induced regulatory cells because, apart from an absence of added insulin in the cultures with GAD, responses to conA and anti-CD3 were not impaired. A direct explanation is that tile reduced response to GAD reflects the protective effect of aerosol insulin on insulitis and β-cell destruction. […]

male NOD mice = assay: Adoptive transfer of diabetes (co-transfer of splenocytes); format: in vivo, mouse
NOD female mice = assay: Intranasal insulin, proinsulin or proinsulin peptide 24-36, diabetes in NOD mice; format: in vivo, mouse; details: for onset and incidence of diabetes: single intranasal dose at either 28 or 56 days of age, compared to control proteins ovalbumin or hen egg lysozyme; for effectiveness on a comparative dose basis: single intranasal dose, NOD female mice
Experimental: Intranasal insulin (FIG. 1), proinsulin (FIG. 2) or proinsulin peptide 24-36 (FIG. 3). Commercially available insulin at 4 mg/ml, or proinsuling or proinsulin peptide 24-36 at 1-4 mg/ml in either insulin carrier solution or mouse tonicity—phosphate buffered saline, was applied in a volume of 10-20 μl to the nostrils of unanaesthetised, restrained NOD female mice at either 28 or 56 days of age.

[5] = test system: at-risk first-degree relatives with immune markers of IDDM; details: intranasal
Source text: A clinical trial involves administration of intranasal insulin to at-risk but otherwise healthy first-degree relatives with immune markers of IDDM, including circulating antibodies and T cells reactive with islet autoantigens.
This trial examines the effect of intranasal insulin on the surrogate immune markers of IDDM. The design is randomized, double-blind and placebo-controlled, with a crossover at six months. The placebo is the carrier solution normally used for insulin. […] Treatment is administered daily for 10 consecutive days, then for two consecutive days weekly. After six months, treatment is crossed over (from insulin to placebo, or vice versa).
The administration dose of insulin per nostril is approximately 200 μl of the commercial 4 mg/ml solution. The placebo is the carrier solution in which the insulin is normally dissolved.

female NOD mice [6] = assay: Aerosol treatment and diabetes assessment (blood glucose >11 mM); format: in vivo, mouse; details: aerosol for 10 consecutive days and then weekly, started at 49 days of age (insulitis well-established)
[7] = humans, in the absence of absorption-promoting agents; cited from earlier work
NOD mouse = details: oral, 1 mg twice weekly; cited from earlier work
[8] = additive: Anti-CD3 antibody (10 μg/ml)
[9] = additive: Concanavalin A (5 μg/ml)
[10] = additive: Human GAD65 (20 μg/ml)
[11] = additive: Human insulin (40 μg/ml)
[12] = additive: Mouse insulin II B-chain (a 9-23) (40 μg/ml)

Substance | Diabetes frequency (female NOD mice [1]) | diabetes incidence at 156 days of age (median) (female NOD mice [1]) [%] | diabetes incidence at 240 days of age (median) (female NOD mice [1]) [%] | incidence of diabetes by 240 days of age (female NOD mice [1]) [%] | Insulitis score (female NOD mice [2]) | [3H]-thymidine uptake (cpm, mean ± SD) [3, 8] [cpm] | [3H]-thymidine uptake (cpm, mean ± SD) [3, 9] [cpm] | [3H]-thymidine uptake (cpm, mean ± SD) [3, 10] | [3H]-thymidine uptake (cpm, mean ± SD) [3, 11] [cpm] | [3H]-thymidine uptake (cpm, mean ± SD) [3, 12] | [3H]-thymidine uptake (cpm, mean ± SD) ([3]; additive: None) | IFN-γ secretion [4] [pg/mL] | IL-2 secretion [4] [pg/mL] | TGF-β secretion [4] | IL-4 secretion [4] | IL-10 secretion [4] | Precipitation of 125I-insulin radioactivity by antibodies in sera (mean precipitated ± SD) (insulin antibodies) [%] | onset and incidence of diabetes (NOD female mice) | diabetes incidence at 156 days (female NOD mice [6]) [%] | effectiveness on a comparative dose basis (NOD female mice) | other results
Recombinant human insulin | 2/32 (6.3%)^2 | 23 | 49 | 75 | 1.2 ± 0.98^1 | 2221 ± 533 | 3357 ± 812 | 424 ± 165^c cpm | 134 ± 27 | 169 ± 80^b cpm | 157 ± 28^a cpm | 368 ± 71 | 200 ± 15 | 293 ± 131 | 36 ± 6 pg/mL | 222 ± 149 pg/mL | 12.7±3.6 | significantly delayed the onset and decreased the incidence of diabetes | 25 |  | clinical complications or abnormalities at autopsy (female NOD mice [1]; NOD mice treated with aerosol or intranasal insulin): no clinical complications, or abnormalities at autopsy; Infiltration of the salivary glands by lymphoid cells (sialitis) (female NOD mice [2]; NOD mice, aerosol treatment): unaffected; Diabetes incidence after transfer decreased (male NOD mice; 1.4×10^5 γδ T cells from aerosol-treated mice co-injected with 2×10^7 spleen cells from diabetic mice, for at least 70 days): 50%; Diabetes incidence suppressed after adoptive transfer (male NOD mice; co-injection of splenocytes or nylon wool-non-adherent splenocytes from aerosol-treated mice with 2×10^7 diabetic spleen cells, six separate experiments): ≥ 75%; side effects ([5]; 36 high-risk subjects aged 4-30): No significant side effects; mucosal irritation ([5]; human subjects): only been rare and then minor and transient; systemic uptake from the naso-pharyngeal mucosa [7]: insignificant
proinsulin peptide 24-36 (AFVNQHLCGSHLV; pro-form; UniProt P01308 24-36, looked up, fragment) [peptide fragment of proinsulin, amino acids 24-36, applied intranasally at 1-4 mg/ml] |  |  |  |  |  |  |  |  |  |  |  |  |  |  |  |  |  | significantly delayed the onset and decreased the incidence of diabetes |  | more effective than insulin | adoptive transfer of diabetes by splenocytes from diabetic mice (male NOD mice; whole splenocytes, and splenocytes depleted of CD8 but not CD4 T cells, from female mice given a single intranasal dose at 28 days, taken at 56 days): significantly suppressed the adoptive transfer of diabetes
proinsulin |  |  |  |  |  |  |  |  |  |  |  |  |  |  |  |  |  | significantly delayed the onset and decreased the incidence of diabetes |  | more effective than insulin | 
ovalbumin [control ovalbumin protein, at 4 mg/ml, delivered as aerosol] | 8/32 (25%) | 47 | 79 | 88 | 2.6 ± 0.92 | 2643 ± 1126 | 2960 ± 494 | 1381 ± 650^f cpm | 197 ± 82 | 435 ± 240^e cpm | 208 ± 29^d cpm | 423 ± 31 | 186 ± 27 | 162 ± 41 | not detectable | not detectable | 6.9±2.5 |  | 58 |  | 
porcine insulin [oral porcine insulin] |  |  |  |  |  |  |  |  |  |  |  |  |  |  |  |  |  |  |  |  | onset and incidence of diabetes (NOD mouse): delayed the onset and reduced the incidence of diabetes
